# Results as given in patent US8252832B2, “Kinesin inhibitors as cancer therapeutics” (Novartis AG, priority 2007, dated 2012).
# Like-named read-outs stand apart in the source and are kept apart here.
# Tests used:
# Experiment in all cases: CellTiter-Glo, hematologic malignancy panel
# Type in all cases: cell-based
# [1] = tested on: KMS11; conditions: for GI50: Homo sapiens, KMS-11, MM
# Excerpt: (§1) Identification of tumor types that are the most sensitive to the KSP inhibitors of the present invention can be accomplished using an unbiased approach that uses several cell-based assays. The assays chosen were as follows: • CellTiter-Glo®. This is an assay designed to measure ATP concentration in a cell culture, and can be correlated to cell number. Briefly CellTiter-Glo® (Promega Corporation) is a homogeneous method using the single CellTiter-Glo® reagent to detect ATP wherein ATP in the assay drives the activity of a thermostable luciferase to create a luminescent signal which can then be measured and correlated with the number of viable cells. Briefly, for adherent cells, 1,000 to 5,000 cells/well were plated in 96-well plates (100 μl/well) and let to adhere for 24 hours before being treated with drug. For non-adherent cells, 1,000 to 10,000 cells/well were plated in 96-well plates (100 μl/well) and immediately treated with drug. Drug dilutions were prepared in DMSO at 1000 times the final concentration. These dilutions were then diluted 1/100 in growth media before being added to the cells (11 μl/well) to achieve the desired final concentration. After 48 h in a 37° C. tissue culture incubator, the plates were processed for the CellTiter-Glo®assay according to the manufacturer's instructions. Protocol for a 72 hour cell proliferation assay: The 72 hour assay was performed the same way as the 48 hour assay except for the following modifications: For adherent cells, 500 to 5,000 cells/well were plated in 96-well plates (90 μl/well cell growth media) and left to adhere for 24 hours before being treated with drug. For non-adherent cells, 1,000 to 10,000 cells/well were plated in 96-well plates (90 μl/well cell growth media) and immediately treated with drug. Data values presented represent the concentration of test compound required for a 50% reduction in growth. • LDH release. The Cytotoxicity Detection KitPLUS (LDH) assay (Roche Diagnostics, Manheim, Germany) measures the amount of LDH released in the media by dying cells; LDH catalyzes the conversion of lactate into pyruvate. The enzymatic reaction is coupled to a chemical reaction that uses a tetrazolium salt to form a formazan that is red and can be detected by its absorbance at 490 nm. This assay measures the amount of cell death after drug treatment. Cells were plated at 10,000 cells/well in 96-well plates (100 μl/well). Adherent cells were let to adhere for 24 hours before being treated with drug, whereas non-adherent cells were immediately treated with drug. Drug dilutions were prepared in DMSO at 1000 times the final concentration. These dilutions were then diluted 1/100 in growth media before being added to the cells (11 μl/well) to achieve the desired final concentration. After 48 h in a 37° C. tissue culture incubator, the plates were processed for the Cytotoxicity Detection KitPLUS (LDH) assay according to the manufacturer's instructions. The media only values were subtracted from all the data points before analysis. Data values presented correspond to the compound concentration wherein LDH output is at half maximal level. • Caspase-Glo® 3/7. The Caspase-Glo® 3/7 Assay (Promega Corporation) is a homogeneous luminescent assay that measures caspase-3/7 activities. The assay provides a proluminescent caspase-3/7 DEVD-aminoluciferin substrate and a thermostable luciferase in a reagent optimized for caspase-3/7 activity, luciferase activity and cell lysis. Adding the single Caspase-Glo® 3/7 Reagent results in cell lysis, followed by caspase cleavage of the substrate. This liberates free aminoluciferin, which is consumed by the luciferase, generating a luminescent signal. The signal is proportional to caspase-3/7 activity. Data values presented correspond to the compound concentration wherein caspase 3/7 activity is at half maximal level. […]
# [2] = tested on: L428; conditions: for GI50: Homo sapiens, L-428, HL
# Excerpt: as §1
# [3] = tested on: Karpas-299-Luc; conditions: NHL
# Excerpt: as §1
# [4] = tested on: OPM2; conditions: for GI50: Homo sapiens, OPM-2, MM
# Excerpt: as §1
# [5] = tested on: AML-193
# Excerpt: as §1
# [6] = tested on: K562; conditions: CML; for GI50: Homo sapiens
# Excerpt: as §1
# [7] = tested on: MOLM13-Luc; conditions: AML
# Excerpt: as §1
# [8] = tested on: RS4; 11; conditions: ALL; for GI50: Homo sapiens
# Excerpt: as §1
# [9] = tested on: HL60; conditions: for GI50: Homo sapiens, HL-60, AML
# Excerpt: as §1
# [10] = tested on: HL60-Luc; conditions: AML; for GI50: HL-60-Luc
# Excerpt: as §1
# [11] = tested on: SR; conditions: NHL; for GI50: Homo sapiens
# Excerpt: as §1
# [12] = tested on: SEM-Luc; conditions: ALL
# Excerpt: as §1
# [13] = tested on: CCRF-CEM; conditions: ALL; for GI50: Homo sapiens
# Excerpt: as §1
# [14] = tested on: HEL92; conditions: AML
# Excerpt: as §1
# [15] = tested on: MOLT-4; conditions: ALL; for GI50: Homo sapiens
# Excerpt: as §1
# [16] = tested on: H929-Luc; conditions: MM
# Excerpt: as §1
# [17] = tested on: L363; conditions: for GI50: Homo sapiens, L-363, MM
# Excerpt: as §1
# [18] = GI50 in nM, read-out: Log(GI50) (converted)
structure (smiles),measurement,setting,value
CC(C)(C)[C@H](c1nc(-c2cc(F)ccc2F)cn1Cc1ccccc1)N(CC[C@H](N)CF)C(=O)CO [Compound IIa],GI50,[1]; [18],0.483 nM
same,GI50,[1]; read-out: GI50,0.48 nM
same,Differential vs mean Log(GI50),[1]; MM,−0.154
same,Differential vs mean Log(GI50),[2]; HL,−1.771
same,GI50,[2]; [18],20 nM
same,GI50,[2]; read-out: GI50,20 nM
same,Differential vs mean Log(GI50),[3],−1.775
same,GI50,[3]; [18],20.2 nM
same,GI50,[3]; read-out: GI50,20.2 nM
same,GI50,[4]; [18],0.135 nM
same,GI50,[4]; read-out: GI50,0.14 nM
same,Differential vs mean Log(GI50),[4]; MM,0.400
same,Differential vs mean Log(GI50),[5],0.489
same,GI50,[5]; [18],0.11 nM
same,GI50,[5]; read-out: GI50,0.11 nM
same,Differential vs mean Log(GI50),[6],0.210
same,GI50,[6]; [18],0.209 nM
same,GI50,[6]; read-out: GI50,0.21 nM
same,Differential vs mean Log(GI50),[7],0.175
same,GI50,[7]; [18],0.226 nM
same,GI50,[7]; read-out: GI50,0.23 nM
same,Differential vs mean Log(GI50),[8],0.530
same,GI50,[8]; [18],0.1 nM
same,GI50,[8]; read-out: GI50,0.1 nM
same,Differential vs mean Log(GI50),[9]; AML,0.313
same,GI50,[9]; [18],0.165 nM
same,GI50,[9]; read-out: GI50,0.17 nM
same,Differential vs mean Log(GI50),[10],−0.173
same,GI50,[10]; [18],0.505 nM
same,GI50,[10]; read-out: GI50,0.51 nM
same,GI50,[11]; [18],0.11 nM
same,GI50,[11]; read-out: GI50,0.11 nM
same,Differential vs mean Log(GI50),[11],0.487
same,Differential vs mean Log(GI50),[12],0.354
same,GI50,[12]; [18],0.15 nM
same,GI50,[12]; read-out: GI50,0.15 nM
same,Differential vs mean Log(GI50),[13],0.315
same,GI50,[13]; [18],0.164 nM
same,GI50,[13]; read-out: GI50,0.16 nM
same,Differential vs mean Log(GI50),[14],−0.160
same,GI50,[14]; [18],0.49 nM
same,GI50,[14]; read-out: GI50,0.49 nM
same,Differential vs mean Log(GI50),[15],0.010
same,GI50,[15]; [18],0.331 nM
same,GI50,[15]; read-out: GI50,0.33 nM
same,Differential vs mean Log(GI50),[16],−0.697
same,GI50,[16]; [18],1.69 nM
same,GI50,[16]; read-out: GI50,1.69 nM
same,GI50,[17]; [18],0.13 nM
same,GI50,[17]; read-out: GI50,0.13 nM
same,Differential vs mean Log(GI50),[17]; MM,0.416
